Data published in ChEMBL document CHEMBL1201862, “PubChem BioAssay data set” (2004).
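Compound exposure: 48 hours, 5 concentrations, 96-well plates. Here, GI50 denotes the concentration required for 50% inhibition of growth.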 The source made the active and inactive calls. Rule as the data show it: active = GI50 up to about 1.1 µM and inactive = higher.

Columns and labels:
Test in all cases: inhibition of tumour cell growth, NCI panel, 48 h
HCT-116 = tested on: HCT-116
SNB-19 = tested on: SNB-19
HCT-15 = tested on: HCT-15
SF-268 = tested on: SF-268
RXF 393 = tested on: RXF 393
PC-3 = tested on: PC-3
OVCAR-4 = tested on: OVCAR-4
HOP-62 = tested on: HOP-62
NCI/ADR-RES = tested on: NCI/ADR-RES
UO-31 = tested on: UO-31
A498 = tested on: A498
MDA-MB-435 = tested on: MDA-MB-435
SF-295 = tested on: SF-295
A549 = tested on: A549
SK-OV-3 = tested on: SK-OV-3
SK-MEL-2 = tested on: SK-MEL-2
OVCAR-5 = tested on: OVCAR-5
K562 = tested on: K562
T47D = tested on: T47D
NCI-H460 = tested on: NCI-H460

| SMILES | GI50 (HCT-116) | GI50 (SNB-19) | GI50 (HCT-15) [µM] | GI50 (SF-268) | GI50 (RXF 393) | GI50 (PC-3) | GI50 (OVCAR-4) | GI50 (HOP-62) | GI50 (NCI/ADR-RES) | GI50 (UO-31) | GI50 (A498) | GI50 (MDA-MB-435) | GI50 (SF-295) | GI50 (A549) | GI50 (SK-OV-3) | GI50 (SK-MEL-2) | GI50 (OVCAR-5) | GI50 (K562) | GI50 (T47D) | GI50 (NCI-H460) |
| --- | --- | --- | --- | --- | --- | --- | --- | --- | --- | --- | --- | --- | --- | --- | --- | --- | --- | --- | --- | --- |
| O=C1Nc2ccccc2C1=Nc1ccc(S(=O)(=O)Nc2nccs2)cc1 | > 100 µM (inactive) | > 100 µM (inactive) | > 100 | > 100 µM (inactive) | > 100 µM (inactive) | > 100 µM (inactive) | > 100 µM (inactive) | > 100 µM (inactive) | > 100 µM (inactive) | > 100 µM (inactive) | > 100 µM (inactive) | 92.5 µM (inactive) | > 100 µM (inactive) | > 100 µM (inactive) | > 100 µM (inactive) | > 100 µM (inactive) | > 100 µM (inactive) | > 100 µM (inactive) | > 100 µM (inactive) | > 100 µM (inactive) |
| NCC1CCN(c2nc3ccccc3c3c2CCCC3)CC1 | 3.07 µM (inactive) | 10.4 µM (inactive) | 4.16 | 2.78 µM (inactive) | 2.75 µM (inactive) | 8.93 µM (inactive) | 10.5 µM (inactive) | 14.7 µM (inactive) | 12.9 µM (inactive) | 5.6 µM (inactive) | 12.4 µM (inactive) | 2.41 µM (inactive) | 12.9 µM (inactive) | 11.2 µM (inactive) | 14.7 µM (inactive) | 5.73 µM (inactive) | 11.9 µM (inactive) | 2.54 µM (inactive) | 2.28 µM (inactive) | 5.06 µM (inactive) |
| CCOC(=O)c1cn(CC)c2ccc3ccsc3c2c1=O | > 100 µM (inactive) | > 100 µM (inactive) | > 100 | > 100 µM (inactive) | > 100 µM (inactive) | > 100 µM (inactive) | > 100 µM (inactive) | > 100 µM (inactive) | > 100 µM (inactive) | > 100 µM (inactive) | > 100 µM (inactive) | > 100 µM (inactive) | > 100 µM (inactive) | > 100 µM (inactive) | > 100 µM (inactive) | 75.2 µM (inactive) | > 100 µM (inactive) | > 100 µM (inactive) | > 100 µM (inactive) | > 100 µM (inactive) |
| CC1(C)OCC(C2OC3OC(C)(C)OC3C2N)O1 (stereo not given) | > 100 µM (inactive) | > 100 µM (inactive) | > 100 | > 100 µM (inactive) | > 100 µM (inactive) | > 100 µM (inactive) | > 100 µM (inactive) | > 100 µM (inactive) | > 100 µM (inactive) | > 100 µM (inactive) | > 100 µM (inactive) | > 100 µM (inactive) | > 100 µM (inactive) | > 100 µM (inactive) | > 100 µM (inactive) | > 100 µM (inactive) | > 100 µM (inactive) | > 100 µM (inactive) | > 100 µM (inactive) | > 100 µM (inactive) |
| COc1cc(OC)c2c(=O)c(OC)c(-c3ccc4c(c3)OCO4)oc2c1 | 44.4 µM (inactive) | 22 µM (inactive) | > 100 | 20.7 µM (inactive) | 28.1 µM (inactive) | 84.7 µM (inactive) | > 100 µM (inactive) | 23.5 µM (inactive) | 46.9 µM (inactive) | > 100 µM (inactive) | 15.6 µM (inactive) | > 100 µM (inactive) | 22.2 µM (inactive) | > 100 µM (inactive) | 22.8 µM (inactive) | 19.1 µM (inactive) | > 100 µM (inactive) | > 100 µM (inactive) | 23.1 µM (inactive) | > 100 µM (inactive) |
| COC(=O)CCc1cc(OC)c2c(c1)[C@H](C(=O)OC)[C@@H](c1ccc(O)c(OC)c1)O2 | 35.5 µM (inactive) | 51.9 µM (inactive) | 32.7 | 52.6 µM (inactive) | 55.8 µM (inactive) | 91.8 µM (inactive) | 84.1 µM (inactive) | 77.1 µM (inactive) | 40.9 µM (inactive) | 52.1 µM (inactive) | 31.5 µM (inactive) | 15.1 µM (inactive) | 47.1 µM (inactive) | 39.5 µM (inactive) | 42.8 µM (inactive) | 33.1 µM (inactive) | > 100 µM (inactive) | 13.4 µM (inactive) | 55.5 µM (inactive) | 37.8 µM (inactive) |
| COC(=O)Cc1c2n(c3ccccc13)C(=O)N1c3ccccc3C(CC(=O)OC)C21 (stereo not given) | 23 µM (inactive) | 18.1 µM (inactive) | 69 | 39.5 µM (inactive) | 21.2 µM (inactive) | 51.5 µM (inactive) | 10.7 µM (inactive) | 17.4 µM (inactive) | 53.1 µM (inactive) | 54.5 µM (inactive) | 39.9 µM (inactive) | > 100 µM (inactive) | 18.8 µM (inactive) | 34.2 µM (inactive) | 21.8 µM (inactive) | 38.7 µM (inactive) | 32.9 µM (inactive) | > 100 µM (inactive) | 76 µM (inactive) | 11.6 µM (inactive) |
| CC(=O)[C@@]1(O)CC[C@H]2[C@@H]3C[C@H](C)C4=CC(=O)CC[C@]4(C)[C@H]3[C@@H](O)C[C@@]21C | > 100 µM (inactive) | > 100 µM (inactive) | > 100 | > 100 µM (inactive) | > 100 µM (inactive) | > 100 µM (inactive) | > 100 µM (inactive) | > 100 µM (inactive) | > 100 µM (inactive) | > 100 µM (inactive) | > 100 µM (inactive) | > 100 µM (inactive) | > 100 µM (inactive) | 60.1 µM (inactive) | > 100 µM (inactive) | > 100 µM (inactive) | > 100 µM (inactive) | > 100 µM (inactive) | 94.2 µM (inactive) | > 100 µM (inactive) |
| COc1cc([C@@H]2c3[nH]c4ccccc4c3C(Nc3ccc([N+](=O)[O-])cc3)[C@H]3COC(=O)N23)cc(OC)c1O (stereo not given in full) | 0.365 µM (active) | 0.127 µM (active) | 1.96 | 0.299 µM (active) | 0.382 µM (active) | 0.698 µM (active) | 1.74 µM (inactive) | 0.0873 µM (active) | > 86.3 µM (inactive) | 1.27 µM (inactive) | 0.14 µM (active) | 0.505 µM (active) | 0.125 µM (active) | 0.0531 µM (active) | 0.269 µM (active) | 0.847 µM (active) | 0.369 µM (active) | 0.179 µM (active) | 0.466 µM (active) | < 0.0181 µM (active) |
| Cn1c(=O)c2c(nc3[nH]c(=O)c(Br)cn32)n(C)c1=O | > 100 µM (inactive) | > 100 µM (inactive) | > 100 | > 100 µM (inactive) | > 100 µM (inactive) | > 100 µM (inactive) | > 100 µM (inactive) | > 100 µM (inactive) | > 100 µM (inactive) | > 100 µM (inactive) | > 100 µM (inactive) | > 100 µM (inactive) | > 100 µM (inactive) | > 100 µM (inactive) | > 100 µM (inactive) | > 100 µM (inactive) | > 100 µM (inactive) | > 100 µM (inactive) | > 100 µM (inactive) | > 100 µM (inactive) |
| CC(C)C1CC(CO)(CNc2cc(Cl)nc(N)n2)C1 (stereo not given) | 41.3 µM (inactive) | > 100 µM (inactive) | 22.5 | 5 µM (inactive) | 19.7 µM (inactive) | 71 µM (inactive) | 20.7 µM (inactive) | > 100 µM (inactive) | 16.8 µM (inactive) | 54 µM (inactive) | 4.49 µM (inactive) | 46.1 µM (inactive) | 6.22 µM (inactive) | 39.2 µM (inactive) | > 100 µM (inactive) | 45.9 µM (inactive) | 81.8 µM (inactive) | 9.57 µM (inactive) | 0.805 µM (active) | 30.9 µM (inactive) |
| c1cc(-c2ccsc2-c2ccsc2)cs1 | 52.1 µM (inactive) | > 100 µM (inactive) | 47.8 | > 86.1 µM (inactive) | 27.4 µM (inactive) | > 100 µM (inactive) | > 55.3 µM (inactive) | 77.3 µM (inactive) | > 100 µM (inactive) | > 90.6 µM (inactive) | > 100 µM (inactive) | 36.6 µM (inactive) | > 81.1 µM (inactive) | 46.3 µM (inactive) | > 100 µM (inactive) | 28.5 µM (inactive) | > 100 µM (inactive) | > 27.2 µM (inactive) | 58.1 µM (inactive) | > 100 µM (inactive) |
| O=C(Nc1nc2ccccc2s1)c1cc([N+](=O)[O-])ccc1Cl | 3.87 µM (inactive) | 28.4 µM (inactive) | 4.63 | 4.45 µM (inactive) | 2.65 µM (inactive) | 7.24 µM (inactive) | 8.39 µM (inactive) | 13.6 µM (inactive) | 6.89 µM (inactive) | 6.76 µM (inactive) | > 81.7 µM (inactive) | 3.13 µM (inactive) | 22.3 µM (inactive) | 6.17 µM (inactive) | 16 µM (inactive) | 13.2 µM (inactive) | 23 µM (inactive) | 3.86 µM (inactive) | 13.9 µM (inactive) | 1.91 µM (inactive) |
| CC(=O)c1cccc(NC(=O)C(=O)c2c(O)oc3ccccc3c2=O)c1 | > 100 µM (inactive) | > 100 µM (inactive) | > 100 | > 100 µM (inactive) | > 100 µM (inactive) | > 100 µM (inactive) | > 100 µM (inactive) | > 100 µM (inactive) | > 100 µM (inactive) | > 100 µM (inactive) | > 100 µM (inactive) | > 100 µM (inactive) | > 100 µM (inactive) | > 100 µM (inactive) | > 100 µM (inactive) | 10 µM (inactive) | > 100 µM (inactive) | > 100 µM (inactive) | > 100 µM (inactive) | > 100 µM (inactive) |
